Source: US20230089247A1, “NOVEL COMPOUNDS SUITABLE FOR THE TREATMENT OF DYSLIPIDEMIA” (ZYDUS LIFESCIENCES LIMITED, priority 2019, published 2023)

Molecular target: PCSK9 (Homo sapiens, UniProt Q8NBP7)
Test: BODIPY-LDL uptake assay in HepG2 cells
Type: cell-based
Settings: 5 μg/ml PCSK9, BODIPY-LDL
Description: BODIPY-LDL Uptake Assay in HepG2 Cells.
An established assay for PCSK9 inhibition features uptake of fluorescently labeled LDL nanoparticles (BODIPY-LDL) by hepatocytes and uptake of the BODIPY-containing particles is maximized in the absence of PCSK9.
In the LDL uptake assay, HepG2 cells were seeded at a density of 6×10^4 cells/well in a 96-well plate. After 24 h, the test compounds at various concentrations were pre-incubated with 5 μg/ml PCSK9 in 0.2% DMSO for 60 min prior to the addition on to the cells. After 16 h the medium was removed and 1 μg/ml BODIPY-LDL (Invitrogen) in serum free media was added and incubated for 5 h. Then the cells were washed twice with 0.25% BSA in PBS. Then the fluorescence of the cells in PBS was measured using TECAN multimode reader (Excitation: 485 nm and Emission: 520 nm). The readings were taken in triplicate and the final values were normalized with the protein concentration from respective wells. The wells without test compound containing external PCSK9 is considered as zero uptake and the one without PCSK9 was considered as 100% uptake. The percentage increase in LDL uptake for the test compounds were calculated using these values.

PCSK9, sequence (Q8NBP7 153-692): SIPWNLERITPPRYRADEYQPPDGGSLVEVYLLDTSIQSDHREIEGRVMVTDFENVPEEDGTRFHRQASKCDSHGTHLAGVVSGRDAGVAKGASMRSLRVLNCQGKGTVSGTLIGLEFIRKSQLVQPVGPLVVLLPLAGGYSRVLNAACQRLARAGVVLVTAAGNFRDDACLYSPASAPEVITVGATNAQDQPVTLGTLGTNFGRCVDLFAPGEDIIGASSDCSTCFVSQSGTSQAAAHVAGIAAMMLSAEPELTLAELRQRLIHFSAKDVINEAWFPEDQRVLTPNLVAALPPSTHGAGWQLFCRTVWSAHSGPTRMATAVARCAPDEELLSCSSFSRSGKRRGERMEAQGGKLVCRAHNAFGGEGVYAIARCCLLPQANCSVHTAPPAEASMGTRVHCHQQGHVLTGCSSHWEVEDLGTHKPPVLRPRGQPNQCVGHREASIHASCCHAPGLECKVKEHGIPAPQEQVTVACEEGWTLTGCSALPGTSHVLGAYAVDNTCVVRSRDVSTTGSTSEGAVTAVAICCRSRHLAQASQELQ

SMILES	% increase in LDL Uptake (1 μM test compound) [%]	% increase in LDL Uptake (10 μM test compound) [%]	% increase in LDL Uptake (30 μM test compound) [%]
O=C(O)c1cc(C2(O)COC2)ccc1N1CCC(c2ccc(C(F)(F)F)cc2)CC1 [Example 77, 5-(3-hydroxyoxetan-3-yl)-2-(4-(4-(trifluoromethyl)phenyl)piperidin-1-yl)benzoic acid]	0	13	37
O=C(c1cccc(C2(O)COC2)c1)N1CCC2(CC1)CCN(c1ccc(C(F)(F)F)cc1)CC2 [Example 100, (3-(3-hydroxyoxetan-3-yl)phenyl)(9-(4-(trifluoromethyl)phenyl)-3,9-diazaspiro[5.5]undecan-3-yl)methanone]	29	0	0
COC1(c2ccc(C(=O)N3CCC(c4ccc(C(F)(F)F)c(-n5cnc(C)c5)c4)CC3)cc2)COC1 [Example 108, (4-(3-methoxyoxetan-3-yl)phenyl)(4-(3-(4-methyl-1H-imidazol-1-yl)-4-(trifluoromethyl)phenyl)piperidin-1-yl)methanone]	9	26	32
O=C(c1ccc(C2(O)COC2)cc1)N1CCc2nc(-c3ccc(C(F)(F)F)cc3)sc2C1 [Example 175, (4-(3-hydroxyoxetan-3-yl)phenyl)(2-(4-(trifluoromethyl)phenyl)-6,7-dihydrothiazolo[5,4-c]pyridin-5(4H)-yl)methanone]	17	0	0
COC1(c2ccc(C(=O)N3CCC(c4ccc(C(F)(F)F)nc4)CC3)cc2)COC1 [Example 213, (4-(3-methoxyoxetan-3-yl)phenyl)(4-(6-(trifluoromethyl)pyridin-3-yl)piperidin-1-yl)methanone]	0	0	37
O=C(c1ccc(C2(O)COC2)cc1)N1CCC(c2ccc(C(F)(F)F)cn2)CC1 [Example 212, (4-(3-hydroxyoxetan-3-yl)phenyl)(4-(5-(trifluoromethyl)pyridin-2-yl)piperidin-1-yl)methanone]	8	4	48
O=C(Nc1ccc(C2(O)COC2)cc1)N1CC2CN(c3ccc(C(F)(F)F)cc3)CC2C1 (stereo not drawn) [Example 75, N-(4-(3-hydroxyoxetan-3-yl)phenyl)-5-(4-(trifluoromethyl)phenyl) hexahydropyrrolo[3,4-c]pyrrole-2(1H)-carboxamide]	20	38	27
CC(C)(C)OC(=O)N1CCC(O)(c2ccc(C(=O)N3CCC(c4ccc(C(F)(F)F)cc4)CC3)cc2)C1 (stereo not drawn) [Example 151, tert-butyl 3-hydroxy-3-(4-(4-(4-(trifluoromethyl)phenyl)piperidine-1-carbonyl)phenyl)pyrrolidine-1-carboxylate]	34	0	0
O=C(c1cccc(C2(O)COC2)c1)N1CC2CN(c3ccc(C(F)(F)F)cc3)CC2C1 (stereo not drawn) [Example 55, (3-(3-hydroxyoxetan-3-yl)phenyl)(5-(4-(trifluoromethyl)phenyl)hexahydropyrrolo[3,4-c]pyrrol-2(1H)-yl)methanone]	82	320	287
O=C(c1cccc(C2(O)COC2)c1)N1CCc2scc(-c3ccc(C(F)(F)F)cc3)c2C1 [Example 176, (3-(3-hydroxyoxetan-3-yl)phenyl)(3-(4-(trifluoromethyl)phenyl)-6,7-dihydrothieno[3,2-c]pyridin-5(4H)-yl)methanone]	0	12	68
COC1(c2ccc(NC(=O)C3CCN(c4ccc(C(F)(F)F)cc4)CC3)cc2)COC1 [Example 60, N-(4-(3-methoxyoxetan-3-yl)phenyl)-1-(4-(trifluoromethyl)phenyl) piperidine-4-carboxamide]	50	7	0
O=C(c1ccc(C2(O)COC2)cc1)N1Cc2cn(-c3ccc(C(F)(F)F)cc3)cc2C1 [Example 93, (4-(3-hydroxyoxetan-3-yl)phenyl)(5-(4-(trifluoromethyl)phenyl)-3,5-dihydropyrrolo[3,4-c]pyrrol-2(1H)-yl)methanone]	0	90	144
CCOC1(c2ccc(C(=O)N3CCN(c4ccc(C(F)(F)F)cn4)CC3)cc2)COC1 [Example 219, (4-(3-ethoxyoxetan-3-yl)phenyl)(4-(5-(trifluoromethyl)pyridin-2-yl)piperazin-1-yl)methanone]	4	41	15
COC1(c2ccc(C(=O)N3CCC(c4ccc(C(F)(F)F)cc4)CC3)cc2)CCN(C(C)=O)CC1 [Example 158, 1-(4-methoxy-4-(4-(4-(4-(trifluoromethyl)phenyl)piperidine-1-carbonyl)phenyl)piperidin-1-yl)ethan-1-one]	0	42	0
COc1ccc(C2CCN(C(=O)c3ccc(C4(O)COC4)cc3)CC2)cc1F [Example 28, (4-(3-fluoro-4-methoxyphenyl)piperidin-1-yl)(4-(3-hydroxyoxetan-3-yl)phenyl)methanone]	0	8	39
CC(=O)OC1(c2ccc(C(=O)N3CCC(c4ccc(C(F)(F)F)cc4)CC3)cc2)COC1 [Example 36, 3-(4-(4-(4-(trifluoromethyl)phenyl)piperidine-1-carbonyl)phenyl) oxetan-3-yl acetate]	0	9	17
O=C(c1ccc(C2(O)COC2)cc1)N1CCC(c2ccc(C(F)(F)F)cc2)C1 (stereo not drawn) [Example 102, (4-(3-hydroxyoxetan-3-yl)phenyl)(3-(4-(trifluoromethyl)phenyl)pyrrolidin-1-yl)methanone]	4	31	25
O=C(c1ccc(C2(O)CSC2)cc1)N1CCC(c2ccc(C(F)(F)F)cc2)CC1 [Example 145, (4-(3-hydroxythietan-3-yl)phenyl)(4-(4-(trifluoromethyl)phenyl)piperidin-1-yl)methanone]	2	70	0
O=C(c1ccc(C2(O)COC2)cc1)N1CCC(c2ccccc2)CC1 [Example 64, (4-(3-hydroxyoxetan-3-yl)phenyl)(4-phenylpiperidin-1-yl) methanone]	0	13	6
O=C(c1ccc(C2(O)CCNCC2)cc1)N1CCC(c2ccc(C(F)(F)F)cc2)CC1 [Example 141, (4-(4-hydroxypiperidin-4-yl)phenyl)(4-(4-(trifluoromethyl)phenyl)piperidin-1-yl)methanone]	0	0	28
O=C(c1ccc(C2(OCC3CC3)COC2)cc1)N1CC2CN(c3ccc(C(F)(F)F)cc3)CC2C1 (stereo not drawn) [Example 133, (4-(3-(cyclopropylmethoxy)oxetan-3-yl)phenyl)(5-(4-(trifluoromethyl)phenyl)hexahydropyrrolo[3,4-c]pyrrol-2(1H)-yl)methanone]	22	28	32
O=S(=O)(c1ccc(C2(O)COC2)cc1)N1CCN(c2ccc(C(F)(F)F)cc2)CC1 [Example 7, 3-(4-((4-(4-(trifluoromethyl)phenyl)piperazin-1-yl)sulfonyl)phenyl) oxetan-3-ol]	28	63	128
O=C(c1ccc(C2(O)CS(=O)(=O)C2)cc1)N1CCC(c2ccc(C(F)(F)F)cc2)CC1 [Example 62, (4-(3-hydroxy-1,1-dioxidothietan-3-yl)phenyl)(4-(4-(trifluoromethyl)phenyl)piperidin-1-yl)methanone]	18	10	17
CCOC1(c2ccc(C(=O)N3CCC(c4ccc(C(F)(F)F)cc4)CC3)cc2)CCN(C(=O)OC(C)(C)C)CC1 [Example 161, tert-butyl 4-ethoxy-4-(4-(4-(4-(trifluoromethyl)phenyl)piperidine-1-carbonyl)phenyl) piperidine-1-carboxylate]	0	0	16
COc1cc(C2CN(c3ccc(C(F)(F)F)cc3)CCN2C(=O)c2ccc(C3(O)COC3)cc2)ccn1 (stereo not drawn) [Example 67, (4-(3-hydroxyoxetan-3-yl)phenyl)(2-(2-methoxypyridin-4-yl)-4-(4-(trifluoromethyl)phenyl)piperazin-1-yl)methanone]	26	27	11
